In brackets after ≈: the same amount, converted by molar mass.
What was measured:
CYP3A4 [1] = biological target: T1, CYP3A4 (Homo sapiens, UniProt P08684); experiment: Inhibition of CYP3A4 in human liver microsomes assessed as residual activity at 50 uM measured immediately relative to control; type: ADME; conditions: read-out: Activity
CYP3A4 [2] = biological target: T1, CYP3A4; experiment: Inhibition of CYP3A4 in human liver microsomes assessed as residual activity at 10 uM measured after 30 mins relative to control; type: ADME; conditions: read-out: Activity
CYP3A4 [3] = biological target: T1, CYP3A4; experiment: Inhibition of CYP3A4 in human liver microsomes assessed as residual activity at 50 uM measured after 30 mins relative to control; type: ADME; conditions: read-out: Activity
[4] = Unbound clearance in human microsomes; type: ADME, Microsome
[5] = Unbound clearance in rat microsomes; type: ADME, Microsome
[6] = Solubility in pH 5 FeSSIF at 0.2 mg sonicated for 10 mins followed by incubation for 2 days by HPLC analysis; type: physicochemical
CYP3A4 [7] = biological target: T1, CYP3A4; experiment: Inhibition of CYP3A4 in human liver microsomes assessed as residual activity at 10 uM measured immediately relative to control; type: ADME; conditions: read-out: Activity
Cytochrome P450 3A4 = Cytochrome P450 3A4 (Homo sapiens, UniProt P08684); experiment: Time-dependent inhibition of CYP3A4 in human liver microsomes at 10 to 50 uM; type: ADME
Cytochrome P450 3A4, sequence (P08684 whole entry): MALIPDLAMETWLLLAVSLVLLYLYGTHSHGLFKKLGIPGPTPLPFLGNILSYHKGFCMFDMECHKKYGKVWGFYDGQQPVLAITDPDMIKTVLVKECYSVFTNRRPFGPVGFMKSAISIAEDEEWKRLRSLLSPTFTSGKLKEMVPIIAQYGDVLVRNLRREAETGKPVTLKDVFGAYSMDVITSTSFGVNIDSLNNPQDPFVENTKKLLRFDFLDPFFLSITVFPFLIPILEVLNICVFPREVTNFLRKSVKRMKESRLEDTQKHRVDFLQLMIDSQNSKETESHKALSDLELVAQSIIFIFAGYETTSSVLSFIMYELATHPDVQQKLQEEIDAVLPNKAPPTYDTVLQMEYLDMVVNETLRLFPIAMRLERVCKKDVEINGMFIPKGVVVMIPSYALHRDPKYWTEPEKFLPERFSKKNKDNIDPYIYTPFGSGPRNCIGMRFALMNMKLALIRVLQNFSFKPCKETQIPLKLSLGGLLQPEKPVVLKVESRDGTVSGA

[8] = biological target: T2, Serine/threonine-protein kinase TAO2 (Homo sapiens, UniProt Q9UL54); experiment: Inhibition of TAOK2 (unknown origin) after 60 mins by TR-FRET assay
T2 sequence (Q9UL54 whole entry): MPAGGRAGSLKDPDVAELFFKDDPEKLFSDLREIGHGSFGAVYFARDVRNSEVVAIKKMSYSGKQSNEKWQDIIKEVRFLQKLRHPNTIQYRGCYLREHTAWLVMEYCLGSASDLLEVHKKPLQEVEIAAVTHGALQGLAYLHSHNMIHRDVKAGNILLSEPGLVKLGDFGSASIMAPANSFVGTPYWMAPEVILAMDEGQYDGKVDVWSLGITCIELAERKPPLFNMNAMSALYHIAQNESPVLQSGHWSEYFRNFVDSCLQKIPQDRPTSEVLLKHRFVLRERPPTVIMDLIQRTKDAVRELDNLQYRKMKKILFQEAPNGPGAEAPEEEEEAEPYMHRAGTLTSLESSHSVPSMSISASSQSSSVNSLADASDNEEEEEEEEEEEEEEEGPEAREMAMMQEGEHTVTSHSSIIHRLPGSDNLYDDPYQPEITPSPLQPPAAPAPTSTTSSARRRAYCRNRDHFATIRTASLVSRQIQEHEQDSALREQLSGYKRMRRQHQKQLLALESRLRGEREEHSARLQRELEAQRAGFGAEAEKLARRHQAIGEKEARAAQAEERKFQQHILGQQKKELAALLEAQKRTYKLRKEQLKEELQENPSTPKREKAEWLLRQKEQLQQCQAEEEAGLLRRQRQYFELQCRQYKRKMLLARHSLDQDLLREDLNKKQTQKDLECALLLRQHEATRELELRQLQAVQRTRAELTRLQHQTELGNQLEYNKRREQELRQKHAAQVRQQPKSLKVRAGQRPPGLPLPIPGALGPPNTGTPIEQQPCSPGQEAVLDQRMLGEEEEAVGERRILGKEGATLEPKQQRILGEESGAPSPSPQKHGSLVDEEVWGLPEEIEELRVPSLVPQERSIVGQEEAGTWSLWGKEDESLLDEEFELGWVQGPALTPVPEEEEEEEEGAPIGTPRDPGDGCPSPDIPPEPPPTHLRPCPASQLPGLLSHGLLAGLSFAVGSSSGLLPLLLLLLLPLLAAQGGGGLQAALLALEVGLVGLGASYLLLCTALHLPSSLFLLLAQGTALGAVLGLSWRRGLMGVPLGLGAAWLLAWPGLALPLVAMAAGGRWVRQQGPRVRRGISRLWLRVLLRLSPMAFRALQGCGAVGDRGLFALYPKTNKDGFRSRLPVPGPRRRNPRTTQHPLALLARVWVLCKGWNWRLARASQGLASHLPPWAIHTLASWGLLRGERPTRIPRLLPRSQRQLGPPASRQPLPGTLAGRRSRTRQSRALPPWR

[9] = biological target: Serine/threonine-protein kinase B-raf (Homo sapiens, UniProt P15056); experiment: Inhibition of BRAF (unknown origin) after 60 mins by TR-FRET assay
Serine/threonine-protein kinase B-raf, sequence (P15056 whole entry): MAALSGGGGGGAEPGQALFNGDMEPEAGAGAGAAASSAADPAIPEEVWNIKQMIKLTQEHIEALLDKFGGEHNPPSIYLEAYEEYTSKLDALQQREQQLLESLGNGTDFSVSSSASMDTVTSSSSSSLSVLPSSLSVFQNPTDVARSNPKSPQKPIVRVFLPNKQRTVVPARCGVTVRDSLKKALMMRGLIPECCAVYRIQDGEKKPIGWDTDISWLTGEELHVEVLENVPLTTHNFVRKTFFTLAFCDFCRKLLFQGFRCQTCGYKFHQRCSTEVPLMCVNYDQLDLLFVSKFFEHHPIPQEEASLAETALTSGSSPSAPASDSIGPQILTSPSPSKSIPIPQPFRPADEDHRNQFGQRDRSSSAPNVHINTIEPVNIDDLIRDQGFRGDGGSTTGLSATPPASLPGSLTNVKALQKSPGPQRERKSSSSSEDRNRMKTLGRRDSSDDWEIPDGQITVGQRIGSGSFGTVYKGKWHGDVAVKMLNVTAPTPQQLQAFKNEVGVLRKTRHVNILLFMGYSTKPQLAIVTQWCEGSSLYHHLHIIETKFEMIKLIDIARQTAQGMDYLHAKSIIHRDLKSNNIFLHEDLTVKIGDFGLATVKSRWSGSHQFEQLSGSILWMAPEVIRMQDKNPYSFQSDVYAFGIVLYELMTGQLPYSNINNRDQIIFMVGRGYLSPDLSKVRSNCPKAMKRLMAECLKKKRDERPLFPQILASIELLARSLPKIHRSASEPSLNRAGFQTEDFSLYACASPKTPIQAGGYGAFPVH

[10] = Inhibition of CDK11 (unknown origin) after 60 mins by TR-FRET assay; parameters: species or system Homo sapiens
[11] = biological target: Rho-associated protein kinase 2 (Homo sapiens, UniProt O75116); experiment: Inhibition of ROCK2 (unknown origin) after 60 mins by TR-FRET assay
Rho-associated protein kinase 2, sequence (O75116 whole entry): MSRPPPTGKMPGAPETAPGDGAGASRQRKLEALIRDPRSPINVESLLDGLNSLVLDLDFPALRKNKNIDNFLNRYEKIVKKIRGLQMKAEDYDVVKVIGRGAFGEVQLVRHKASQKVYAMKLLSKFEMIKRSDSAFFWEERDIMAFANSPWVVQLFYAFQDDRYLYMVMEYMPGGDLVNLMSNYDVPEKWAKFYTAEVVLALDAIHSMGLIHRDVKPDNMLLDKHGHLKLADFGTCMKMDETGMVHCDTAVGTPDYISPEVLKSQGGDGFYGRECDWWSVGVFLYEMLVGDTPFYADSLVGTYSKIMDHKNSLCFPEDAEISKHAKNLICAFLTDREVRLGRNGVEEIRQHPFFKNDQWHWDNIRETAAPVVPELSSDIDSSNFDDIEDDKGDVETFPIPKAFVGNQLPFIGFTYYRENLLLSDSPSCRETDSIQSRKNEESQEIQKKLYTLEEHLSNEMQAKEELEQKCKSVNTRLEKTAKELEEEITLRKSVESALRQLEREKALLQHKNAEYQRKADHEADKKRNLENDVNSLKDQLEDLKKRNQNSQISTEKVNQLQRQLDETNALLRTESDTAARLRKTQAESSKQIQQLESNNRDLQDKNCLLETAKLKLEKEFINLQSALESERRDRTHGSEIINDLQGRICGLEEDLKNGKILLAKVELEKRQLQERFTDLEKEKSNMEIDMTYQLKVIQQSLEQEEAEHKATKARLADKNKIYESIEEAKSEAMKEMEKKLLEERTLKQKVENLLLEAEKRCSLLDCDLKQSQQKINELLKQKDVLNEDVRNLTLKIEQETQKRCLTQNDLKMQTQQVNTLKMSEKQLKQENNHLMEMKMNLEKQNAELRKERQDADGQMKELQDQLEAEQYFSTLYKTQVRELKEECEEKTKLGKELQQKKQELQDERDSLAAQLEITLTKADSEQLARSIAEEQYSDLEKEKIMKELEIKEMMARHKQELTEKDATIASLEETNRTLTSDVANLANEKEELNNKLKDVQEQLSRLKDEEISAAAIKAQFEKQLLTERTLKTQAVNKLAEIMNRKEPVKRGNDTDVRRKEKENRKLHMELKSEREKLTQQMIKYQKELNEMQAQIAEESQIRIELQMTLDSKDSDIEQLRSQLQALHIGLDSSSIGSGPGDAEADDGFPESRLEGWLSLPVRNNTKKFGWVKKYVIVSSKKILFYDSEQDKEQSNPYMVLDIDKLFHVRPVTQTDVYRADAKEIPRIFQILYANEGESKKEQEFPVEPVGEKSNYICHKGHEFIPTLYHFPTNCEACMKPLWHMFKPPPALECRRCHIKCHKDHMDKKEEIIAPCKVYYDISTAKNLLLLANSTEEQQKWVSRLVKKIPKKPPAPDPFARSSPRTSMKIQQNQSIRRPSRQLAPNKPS

[12] = biological target: cGMP-dependent protein kinase 1 (Homo sapiens, UniProt Q13976); experiment: Inhibition of PKG1A (unknown origin) after 60 mins by TR-FRET assay
cGMP-dependent protein kinase 1, sequence (Q13976 whole entry): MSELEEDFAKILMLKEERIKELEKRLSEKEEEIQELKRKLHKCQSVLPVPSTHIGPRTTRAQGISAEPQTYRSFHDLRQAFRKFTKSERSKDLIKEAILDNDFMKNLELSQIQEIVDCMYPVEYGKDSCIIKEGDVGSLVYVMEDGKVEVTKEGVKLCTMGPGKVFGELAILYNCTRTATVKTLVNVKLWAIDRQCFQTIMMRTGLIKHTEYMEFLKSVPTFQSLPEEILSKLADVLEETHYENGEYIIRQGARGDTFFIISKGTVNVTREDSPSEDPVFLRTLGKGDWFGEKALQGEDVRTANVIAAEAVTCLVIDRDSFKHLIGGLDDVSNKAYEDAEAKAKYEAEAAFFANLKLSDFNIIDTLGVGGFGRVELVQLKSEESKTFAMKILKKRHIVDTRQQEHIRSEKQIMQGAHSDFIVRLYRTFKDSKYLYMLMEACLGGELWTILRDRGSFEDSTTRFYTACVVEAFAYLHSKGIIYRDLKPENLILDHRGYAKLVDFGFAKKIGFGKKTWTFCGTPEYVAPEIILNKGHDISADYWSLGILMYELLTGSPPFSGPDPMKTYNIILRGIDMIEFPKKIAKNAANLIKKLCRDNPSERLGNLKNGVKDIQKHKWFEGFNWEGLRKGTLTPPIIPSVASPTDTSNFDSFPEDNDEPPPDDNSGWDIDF

[13] = biological target: T3, Tyrosine-protein kinase SYK (Homo sapiens, UniProt P43405)
Description: Inhibition of Syk (unknown origin) after 60 mins by TR-FRET assay

[14] = biological target: T3, Tyrosine-protein kinase SYK; remark: listed apart in the source
Description: Inhibition of C-terminal His-tagged Syk catalytic domain (356 to 635 residues) (unknown origin) using biotin-TYR1 as substrate after 60 mins by TR-FRET assay

[15] = biological target: T4, Dual specificity protein kinase TTK (Homo sapiens, UniProt P33981); experiment: Inhibition of TTK (unknown origin) after 60 mins by TR-FRET assay
T4 sequence (P33981 whole entry): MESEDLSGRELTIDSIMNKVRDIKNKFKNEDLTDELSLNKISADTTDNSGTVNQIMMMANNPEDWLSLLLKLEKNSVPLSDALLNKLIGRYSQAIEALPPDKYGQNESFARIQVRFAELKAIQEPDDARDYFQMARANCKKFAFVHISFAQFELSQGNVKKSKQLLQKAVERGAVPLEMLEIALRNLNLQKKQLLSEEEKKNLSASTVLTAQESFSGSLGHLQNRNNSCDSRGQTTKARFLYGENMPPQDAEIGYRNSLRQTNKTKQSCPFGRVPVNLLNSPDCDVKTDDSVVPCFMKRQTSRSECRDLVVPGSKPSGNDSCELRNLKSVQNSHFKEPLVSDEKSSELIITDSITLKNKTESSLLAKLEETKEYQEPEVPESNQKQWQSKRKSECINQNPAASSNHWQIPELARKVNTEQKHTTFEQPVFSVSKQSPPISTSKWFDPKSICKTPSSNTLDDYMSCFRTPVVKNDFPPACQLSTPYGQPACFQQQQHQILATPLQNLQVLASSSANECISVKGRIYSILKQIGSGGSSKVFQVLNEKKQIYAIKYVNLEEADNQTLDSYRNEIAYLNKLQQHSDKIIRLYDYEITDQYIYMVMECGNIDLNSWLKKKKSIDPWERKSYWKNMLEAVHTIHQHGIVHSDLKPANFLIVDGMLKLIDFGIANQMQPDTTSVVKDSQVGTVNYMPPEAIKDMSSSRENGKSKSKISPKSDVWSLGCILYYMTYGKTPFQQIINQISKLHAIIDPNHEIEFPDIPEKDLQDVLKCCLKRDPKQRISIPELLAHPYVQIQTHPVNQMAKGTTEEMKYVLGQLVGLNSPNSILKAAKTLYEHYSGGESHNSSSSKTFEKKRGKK

[16] = biological target: T5, Serine/threonine-protein kinase Nek2 (Homo sapiens, UniProt P51955); experiment: Inhibition of NEK2 (unknown origin) after 60 mins by TR-FRET assay
T5 sequence (P51955 whole entry): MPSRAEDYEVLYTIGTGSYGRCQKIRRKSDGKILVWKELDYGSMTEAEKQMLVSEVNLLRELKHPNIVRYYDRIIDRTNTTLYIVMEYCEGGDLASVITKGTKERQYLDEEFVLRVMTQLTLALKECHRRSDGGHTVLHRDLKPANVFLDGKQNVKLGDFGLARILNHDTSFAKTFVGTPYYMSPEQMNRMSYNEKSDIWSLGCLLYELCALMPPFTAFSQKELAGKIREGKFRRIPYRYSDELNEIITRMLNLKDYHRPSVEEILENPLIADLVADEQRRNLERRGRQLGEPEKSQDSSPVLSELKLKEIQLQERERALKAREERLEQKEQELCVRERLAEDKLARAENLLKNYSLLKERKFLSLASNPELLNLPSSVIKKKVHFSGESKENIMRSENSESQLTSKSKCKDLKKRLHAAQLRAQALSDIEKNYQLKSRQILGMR

T1 sequence (P08684 whole entry): as the sequence (P08684 whole entry) above

CC1(C)OCC(=O)Nc2cc(Nc3nc(NC4CC4)c4occc4n3)ccc21
activity at 0 min, 50 µM (CYP3A4 [1]): 80%
activity at 0.5 h, 10 µM (CYP3A4 [2]): 56%
activity at 0.5 h, 50 µM (CYP3A4 [3]): 14%
CL free [4]: 7.2 L/h/kg
CL free [5]: 12 L/h/kg
solubility at 48 h [6]: 158 µM (≈ 59.9 µg/mL)
activity at 0 min, 10 µM (CYP3A4 [7]): 97%
TDI (Cytochrome P450 3A4): Active

CCCNC(=O)c1ccc(Nc2nc(NCC(F)(F)F)c3cc[nH]c3n2)cc1
IC50 [8]: 529 nM
IC50 [9]: > 10 µM
IC50 [10]: > 10 µM
IC50 [11]: 248 nM
IC50 [12]: > 10 µM
IC50 [13]: 8 nM
IC50 [14]: 17 nM
IC50 [15]: 991 nM
IC50 [16]: > 10 µM

CCCNc1nc(Nc2ccc3c(c2)NC(=O)COC3(C)C)nc2ccoc12
CL free [4]: 18.4 L/h/kg
CL free [5]: 22.4 L/h/kg
solubility at 48 h [6]: > 200 µM

CCNc1nc(Nc2ccc3c(c2)NC(=O)COC3(C)C)nc2ccoc12
CL free [4]: 5.5 L/h/kg
CL free [5]: 19.1 L/h/kg
solubility at 48 h [6]: > 67 µM

CC(C)CNc1nc(Nc2ccc3c(c2)NC(=O)COC3(C)C)nc2ccoc12
CL free [4]: 30.4 L/h/kg
CL free [5]: 64.5 L/h/kg

CC1(C)CCC(=O)Nc2cc(Nc3nc(NC4CC4)c4occc4n3)ccc21
CL free [4]: 19 L/h/kg
CL free [5]: 23.8 L/h/kg
